Literature values, collected in PMC11089243, “The first selective VAP-1 inhibitor in China, TT-01025-CL: safety, tolerability, pharmacokinetics, and pharmacodynamics of single- and multiple-ascending doses” (Frontiers in Pharmacology, 2024).

Assays:
[1] = set-up: method as in NASH, 2022; conditions: ref NASH, 2022
[2] = test system: monoamine oxidase-B in the brain; set-up: method as in NASH, 2022; conditions: NASH patients; inhibition of monoamine oxidase-B in the brain; ref NASH, 2022

Structure (SMILES): CC(C)(C)NC(=O)c1ccc(OC/C(=C/F)CN)cc1.Cl [BI 1467335]
- brain penetration (in words) [1]: high brain penetration
- finding of phase I study leading to suspension of development [2]: risk of drug interactions
